{"source": "patent US7629355B2", "about": "(priority 2003, dated 2009)", "key": {"[1]": {"assay": "induced Straub tail method (antagonist activity)", "conditions": "for Antagonism (μmol/kg) Straub Tail: in vivo"}, "opiate receptor": {"molecular_target": "opiate receptor", "assay": "opiate receptor assay of Pert et al.", "format": "binding", "excerpt": "(Raven Press, New York, N.Y.), at pp. 33-43. […] Int. Pharmacodyn."}, "[2]": {"assay": "reversal of morphine-induced analgesia in the tail flick assay", "conditions": "reversal of analgesia induced by morphine"}, "[3]": {"assay": "mouse jump test (physical dependence)", "format": "in vivo", "conditions": "30 min after 100 mg/kg naloxone on day 4; test compound ip days 1-3", "protocol": "Antagonist activity, considered a measure of nonaddictiveness, was measured by the opiate receptor assay of Pert et al. (1974) Mol. Pharmacol. 10:868. Antagonist activity was also measured using the induced Straub tail method as described by DeGraw et al. (1978) J. Med Chem. 21:415, and Blumberg et al. (1973) Advances in Chemical Psychopharmacology, Vol. 8, M. Braudy et al. eds. (Raven Press, New York, N.Y.), at pp. 33-43. A direct and simple assay measuring physical dependence is the mouse jump test described by Saelens et al. (1971) Arch. Int. Pharmacodyn. 190:213.\nPhysical dependence, a more direct measure of non-addictive properties than antagonist activity, was evaluated using the mouse jump test. Mice were injected intraperitoneally 5 times on day 1 with increasing doses of test compound ranging from 8-100 mg/kg body weight. On days 2 and 3 the mice were given 100 mg/kg 4 times. On day 4 all mice received 100 mg/kg of the antagonist naloxone in a single dose. The mice were then caged for 30 min, and a record was made of the number jumping during this time."}, "κ receptor [4]": {"molecular_target": "T1, κ receptor (Homo sapiens, UniProt P41145)", "T1 construct": "expressed in transfected cells; host or cells: CHO cells", "T1 sequence (P41145 whole entry)": "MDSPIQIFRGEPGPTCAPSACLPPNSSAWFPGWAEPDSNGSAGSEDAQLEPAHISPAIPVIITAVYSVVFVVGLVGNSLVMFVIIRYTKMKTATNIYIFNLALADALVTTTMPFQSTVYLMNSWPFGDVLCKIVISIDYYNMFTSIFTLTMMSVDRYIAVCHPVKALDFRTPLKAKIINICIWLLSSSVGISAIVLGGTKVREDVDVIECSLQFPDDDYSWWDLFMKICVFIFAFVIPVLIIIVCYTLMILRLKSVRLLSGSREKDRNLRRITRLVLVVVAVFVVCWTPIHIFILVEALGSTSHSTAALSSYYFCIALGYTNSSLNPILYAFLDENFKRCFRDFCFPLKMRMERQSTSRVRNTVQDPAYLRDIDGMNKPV", "assay": "biochemical", "format": "biochemical"}, "μ receptor [5]": {"molecular_target": "T2, μ receptor (Homo sapiens, UniProt P35372)", "T2 sequence (P35372 whole entry)": "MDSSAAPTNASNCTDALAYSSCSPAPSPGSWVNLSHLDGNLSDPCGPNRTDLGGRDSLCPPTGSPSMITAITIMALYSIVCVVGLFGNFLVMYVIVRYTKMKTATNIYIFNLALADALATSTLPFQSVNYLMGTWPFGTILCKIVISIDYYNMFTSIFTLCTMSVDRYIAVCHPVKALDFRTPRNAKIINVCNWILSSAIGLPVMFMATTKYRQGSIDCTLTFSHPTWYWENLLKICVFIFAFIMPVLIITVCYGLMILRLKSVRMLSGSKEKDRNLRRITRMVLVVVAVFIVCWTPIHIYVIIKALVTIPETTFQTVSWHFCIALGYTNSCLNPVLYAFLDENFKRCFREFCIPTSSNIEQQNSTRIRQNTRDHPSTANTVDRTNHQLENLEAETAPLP", "assay": "biochemical", "format": "biochemical"}, "δ receptor [6]": {"molecular_target": "T3, δ receptor (Homo sapiens, UniProt P41143)", "T3 construct": "expressed in transfected cells; host or cells: CHO cells", "T3 sequence (P41143 whole entry)": "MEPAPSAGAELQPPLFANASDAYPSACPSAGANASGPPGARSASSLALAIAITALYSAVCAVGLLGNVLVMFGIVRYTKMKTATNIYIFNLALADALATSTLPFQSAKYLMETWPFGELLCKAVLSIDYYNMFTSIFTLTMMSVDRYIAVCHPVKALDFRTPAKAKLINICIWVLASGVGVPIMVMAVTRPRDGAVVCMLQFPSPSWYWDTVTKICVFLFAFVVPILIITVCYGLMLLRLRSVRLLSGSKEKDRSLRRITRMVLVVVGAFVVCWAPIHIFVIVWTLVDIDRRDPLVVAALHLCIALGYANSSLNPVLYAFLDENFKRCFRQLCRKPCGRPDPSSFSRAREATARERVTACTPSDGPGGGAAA", "assay": "biochemical", "format": "biochemical"}, "[7]": {"conditions": "in animals; cited from earlier work"}, "κ receptor [8]": {"molecular_target": "T1, κ receptor", "assay": "biochemical", "format": "binding"}, "μ receptor [9]": {"molecular_target": "T2, μ receptor", "assay": "pA2 analysis of antagonist activity against DAMGO dose response curve", "format": "biochemical"}, "δ receptor [10]": {"molecular_target": "T3, δ receptor", "assay": "biochemical", "format": "binding"}, "μ receptor [11]": {"molecular_target": "T2, μ receptor", "assay": "biochemical", "format": "binding"}, "[12]": {"conditions": "+NaCl, read-out: Opiate Receptor Inhibition (IC50, nM) +NaCl"}, "[13]": {"conditions": "−NaCl, read-out: Opiate Receptor Inhibition (IC50, nM) −NaCl"}}, "note": "Where a name gives a salt, the structure may show the parent alone. Read-outs that look alike come from different tables or passages of the source.", "data": [{"compound": "CCC(C)N1CCC23c4c5ccc(O)c4OC2C(O)C=CC3C1C5", "note": "[N-sec-butyl normorphine (R), reference compound]", "values": [{"measurement": "Antagonism (μmol/kg) Straub Tail", "setting": "[1]", "value": 16.2, "unit": "µmol/kg"}, {"measurement": "IC50", "setting": "opiate receptor; [12]", "value": 110, "unit": "nM"}, {"measurement": "IC50", "setting": "opiate receptor; [13]", "value": 60, "unit": "nM"}]}, {"compound": "C=CCN1CC[C@]23c4c5ccc(O)c4O[C@H]2[C@@H](O)C=C[C@H]3[C@H]1C5", "note": "[nalorphine, reference compound]", "values": [{"measurement": "Antagonism (μmol/kg) Tail Flick", "setting": "[2]", "value": 2.04, "unit": "µmol/kg"}, {"measurement": "IC50", "setting": "opiate receptor; [12]", "value": 6, "unit": "nM"}, {"measurement": "IC50", "setting": "opiate receptor; [13]", "value": 2, "unit": "nM"}]}, {"compound": "CN1CC[C@]23c4c5ccc(O)c4O[C@H]2[C@@H](O)C=C[C@H]3[C@H]1C5", "note": "[morphine]", "values": [{"measurement": "Antagonism (μmol/kg) Tail Flick", "setting": "[2]", "value": 2, "unit": "µmol/kg"}, {"measurement": "number of mice jumping", "setting": "[3]", "value": "10/10"}, {"measurement": "Antagonism (μmol/kg) Straub Tail", "setting": "[1]", "value": 1, "unit": "µmol/kg"}]}, {"compound": "CC(C1CC1)N1CCC23c4c5ccc(O)c4OC2C(O)C=CC3C1C5", "note": "(single isomer, unassigned; diastereomer b) [N-α-methylcyclopropylmethyl-normorphine (S isomer), N-methylcyclopropylmethyl-normorphine (diastereomer B)]", "values": [{"measurement": "Antagonism (μmol/kg) Tail Flick", "setting": "[2]", "value": ">213", "unit": "µmol/kg"}, {"measurement": "IC50", "setting": "opiate receptor; [13]", "value": 0.23, "unit": "nM"}, {"measurement": "melting point", "value": "209 to 210", "unit": "°C"}]}, {"compound": "(−)SKF 10,047", "values": [{"measurement": "κ % Stim", "setting": "κ receptor [4]", "value": "49 ± 13", "unit": "%"}, {"measurement": "EC50", "setting": "κ receptor [4]; read-out: κ EC50", "value": "5.38 ± 2.3", "unit": "nM"}]}, {"compound": "C[C@H]1[C@H]2Cc3ccc(O)cc3[C@]1(C)CCN2CC1CC1", "note": "[Cyclazocine, reference compound]", "values": [{"measurement": "μ % Stim", "setting": "μ receptor [5]", "value": "33 ± 18", "unit": "%"}, {"measurement": "EC50", "setting": "κ receptor [4]", "value": "0.8 ± 0.2", "unit": "nM"}, {"measurement": "κ % Stim", "setting": "κ receptor [4]", "value": 80, "unit": "%"}, {"measurement": "EC50", "setting": "δ receptor [6]", "value": "2.9 ± 1.9", "unit": "nM"}, {"measurement": "δ % Stim", "setting": "δ receptor [6]", "value": "82 ± 9", "unit": "%"}]}, {"compound": "C[C@H](C1CC1)N1CC[C@]23c4c5ccc(O)c4O[C@H]2[C@@H](O)C=C[C@H]3[C@H]1C5", "note": "[compound 1, N-[(1R)-1-cyclopropylethyl]-normorphine]", "values": [{"measurement": "Antagonism (μmol/kg) Tail Flick", "setting": "[2]", "value": ">213", "unit": "µmol/kg"}, {"measurement": "respiratory depression", "setting": "[7]", "value": "free of respiratory depression"}, {"measurement": "therapeutic index", "setting": "[7]", "value": "high therapeutic index"}, {"measurement": "Ki", "setting": "κ receptor [8]", "value": "0.43 ± 0.11", "unit": "nM"}, {"measurement": "Kb", "setting": "μ receptor [9]", "value": "1.43 ± 0.16", "unit": "nM"}, {"measurement": "Slope", "setting": "μ receptor [9]; n=6", "value": "−1.04"}, {"measurement": "pA2", "setting": "μ receptor [9]; n=6", "value": "8.84±0.06"}, {"measurement": "EC50", "setting": "μ receptor [5]", "value": "> 10000", "unit": "nM"}, {"measurement": "functional character at the μ receptor", "setting": "μ receptor [5]", "value": "pure antagonist"}, {"measurement": "EC50", "setting": "κ receptor [4]", "value": "15.2 ± 2.5", "unit": "nM"}, {"measurement": "functional character at κ", "setting": "κ receptor [4]", "value": "partial agonist"}, {"measurement": "κ % Stim", "setting": "κ receptor [4]", "value": "63 ± 1", "unit": "%"}, {"measurement": "Ki", "setting": "δ receptor [10]", "value": "3.97 ± 0.98", "unit": "nM"}, {"measurement": "Ki", "setting": "μ receptor [11]", "value": "0.35 ± 0.06", "unit": "nM"}, {"measurement": "affinity in the opiate assay relative to N-sec-butyl-normorphine", "setting": "opiate receptor; relative to N-sec-butyl-normorphine", "value": "about 122 times"}, {"measurement": "affinity in the opiate assay relative to morphine", "setting": "opiate receptor; relative to morphine", "value": "over 43 times"}, {"measurement": "IC50", "setting": "opiate receptor; [13]", "value": 7, "unit": "nM"}, {"measurement": "EC50", "setting": "δ receptor [6]", "value": "39.6 ± 6.3", "unit": "nM"}, {"measurement": "functional character at δ", "setting": "δ receptor [6]", "value": "partial agonist"}, {"measurement": "δ % Stim", "setting": "δ receptor [6]", "value": "22 ± 6", "unit": "%"}]}, {"compound": "CC(C1CC1)N1CCC23c4c5ccc(O)c4OC2C(O)C=CC3C1C5", "note": "(mixture of isomers) (as salt: salt) [N-α-methylcyclopropylmethyl-normorphine (mixture)] [N-[(1R,S)-1-Cyclopropylethyl]-Normorphine]", "values": [{"measurement": "melting point", "value": "248 to 250", "unit": "°C"}]}, {"compound": "C[C@@H](NC(=O)[C@@H](N)Cc1ccc(O)cc1)C(=O)NCC(=O)N(C)[C@@H](Cc1ccccc1)C(=O)NCCO", "note": "[DAMGO, [D-Ala^2, NMePhe^4, Gly^5-ol]-enkephalin]", "values": [{"measurement": "κ % Stim", "setting": "κ receptor [4]", "value": 62, "unit": "%"}]}, {"compound": "CC(C1CC1)N1CCC23c4c5ccc(O)c4OC2C(O)C=CC3C1C5", "note": "(mixture of isomers) [N-α-methylcyclopropylmethyl-normorphine (mixture)] [N-[(1R,S)-1-Cyclopropylethyl]-Normorphine]", "values": [{"measurement": "antagonist potency relative to nalorphine", "setting": "[1]; Straub tail method", "value": "about one-fourth"}, {"measurement": "Antagonism (μmol/kg) Straub Tail", "setting": "[1]", "value": 4.5, "unit": "µmol/kg"}, {"measurement": "IC50", "setting": "opiate receptor; [12]", "value": 6, "unit": "nM"}, {"measurement": "IC50", "setting": "opiate receptor; [13]", "value": 3, "unit": "nM"}]}, {"compound": "CCC(C)N1CCC23c4c5ccc(O)c4OC2C(O)C=CC3C1C5", "note": "[N-sec-butyl normorphine (S), reference compound]", "values": [{"measurement": "Antagonism (μmol/kg) Straub Tail", "setting": "[1]", "value": 7.4, "unit": "µmol/kg"}, {"measurement": "IC50", "setting": "opiate receptor; [12]", "value": 62, "unit": "nM"}, {"measurement": "IC50", "setting": "opiate receptor; [13]", "value": 28, "unit": "nM"}]}, {"compound": "[D-Pen^2,D-Pen^5]-enkephalin [DPDPE, reference compound]", "values": [{"measurement": "κ % Stim", "setting": "κ receptor [4]", "value": 77, "unit": "%"}]}]}
